Structures are written as SMILES.

This experiment addresses T1, myeloperoxidase (MPO) (Homo sapiens, UniProt P05164).
T1 sequence (P05164 49-745): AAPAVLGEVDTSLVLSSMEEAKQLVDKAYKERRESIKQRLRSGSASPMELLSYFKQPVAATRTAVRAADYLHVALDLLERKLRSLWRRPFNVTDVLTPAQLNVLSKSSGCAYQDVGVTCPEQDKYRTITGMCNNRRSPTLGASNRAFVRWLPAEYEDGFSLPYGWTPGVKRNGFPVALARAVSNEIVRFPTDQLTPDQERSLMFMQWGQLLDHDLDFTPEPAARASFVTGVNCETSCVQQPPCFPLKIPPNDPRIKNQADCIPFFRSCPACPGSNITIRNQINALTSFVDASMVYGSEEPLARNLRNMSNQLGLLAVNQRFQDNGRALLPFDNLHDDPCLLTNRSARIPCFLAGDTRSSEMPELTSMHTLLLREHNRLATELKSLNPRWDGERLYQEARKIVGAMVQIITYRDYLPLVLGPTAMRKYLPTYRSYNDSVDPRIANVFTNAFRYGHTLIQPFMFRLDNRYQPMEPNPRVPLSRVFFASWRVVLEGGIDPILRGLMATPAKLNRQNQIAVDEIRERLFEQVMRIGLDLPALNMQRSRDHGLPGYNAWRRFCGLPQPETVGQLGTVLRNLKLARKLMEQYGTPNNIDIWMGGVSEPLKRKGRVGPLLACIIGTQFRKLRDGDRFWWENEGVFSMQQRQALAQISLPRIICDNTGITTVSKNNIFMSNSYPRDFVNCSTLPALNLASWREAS
Briefly: MPO peroxidation assay (Amplex Red assay). The following applies: MPO peroxidation, potency range class; read-out: Amplex Red IC50. The format is biochemical. The method in brief: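 MPO (200 pM) with 40 nM H2O2 was preincubated 10 min at room temperature with inhibitor in 100 mM KPi pH 7.4. A mix of Amplex Red (200 μM) and H2O2 (10 mM) was then added and resorufin fluorescence read kinetically for 15 min. Slopes over 180–540 s gave % inhibition and IC50 via a four-parameter Hill fit.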
Usually IC50 stands for the concentration at which inhibition is half-maximal. Take `Nc1cc(OCc2ccc(-n3cc4ccccc4n3)cc2OC(F)(F)F)c2nn[nH]c2n1` [Example 259, 7-((4-(2H-indazol-2-yl)-2-(trifluoromethoxy)benzyl)oxy)-3H-[1,2,3]triazolo[4,5-b]pyridin-5-amine]: the half-inhibitory concentration (IC50) was 1 to 100 nM.

Regarding `Nc1cc(OCc2ccc(-n3cnc(-c4ccccc4)c3)cc2OC(F)(F)F)c2nn[nH]c2n1` [Example 260, 7-((4-(4-phenyl-1H-imidazol-1-yl)-2-(trifluoromethoxy)benzyl)oxy)-3H-[1,2,3] triazolo[4,5-b]pyridin-5-amine], the IC50 lay within 1 to 100 nM.

As for `Nc1cc(OCc2ccc(-n3cnc4ccccc43)cc2OC(F)(F)F)c2nn[nH]c2n1` [Example 261, 7-((4-(1H-benzo[d]imidazol-1-yl)-2-(trifluoromethoxy)benzyl)oxy)-3H-[1,2,3] triazolo[4,5-b]pyridin-5-amine], the IC50 was 101 to 999 nM.

Turning to `COC(=O)c1cn(-c2ccc(COc3cc(N)nc4[nH]nnc34)c(OC(F)(F)F)c2)cn1` [Example 264, methyl 1-(4-(((5-amino-3H-[1,2,3]triazolo[4,5-b]pyridin-7-yl)oxy)methyl)-3-(trifluoromethoxy)phenyl)-1H-imidazole-4-carboxylate], the half-maximal inhibitory concentration (IC50) is 101 to 999 nM.

As to `Nc1cc(OCc2ccc(-n3cnc(CO)c3)cc2OC(F)(F)F)c2nn[nH]c2n1` [Example 265, (1-(4-(((5-amino-3H-[1,2,3]triazolo[4,5-b]pyridin-7-yl)oxy)methyl)-3-(trifluoromethoxy)phenyl)-1H-imidazol-4-yl)methanol], the IC50 lay within 1 to 100 nM.

`CN(C)Cc1cn(-c2ccc(COc3cc(N)nc4[nH]nnc34)c(OC(F)(F)F)c2)cn1` [Example 266, 7-((4-(4-((dimethylamino)methyl)-1H-imidazol-1-yl)-2-(trifluoromethoxy)benzyl)oxy)-3H-[1,2,3]triazolo[4,5-b]pyridin-5-amine]: the concentration for half-maximal inhibition (IC50) was 101 to 999 nM.

Turning to `Nc1cc(OCc2ccc(-n3cncn3)cc2OC(F)(F)F)c2nn[nH]c2n1` [Example 267, 7-((4-(1H-1,2,4-triazol-1-yl)-2-(trifluoromethoxy)benzyl)oxy)-3H-[1,2,3]triazolo[4,5-b]pyridin-5-amine], the IC50 is 1 to 100 nM.

As to `Cc1nccn1-c1ccc(COc2cc(N)nc3[nH]nnc23)c(OC(F)(F)F)c1` [Example 268, 7-((4-(2-methyl-1H-imidazol-1-yl)-2-(trifluoromethoxy)benzyl)oxy)-3H-[1,2,3] triazolo[4,5-b]pyridin-5-amine], the concentration for half-maximal inhibition (IC50) is 1 to 100 nM.

For the compound `N#Cc1cnn(-c2ccc(COc3cc(N)nc4[nH]nnc34)c(OC(F)(F)F)c2)c1` [Example 270, 1-(4-(((5-amino-3H-[1,2,3]triazolo[4,5-b]pyridin-7-yl)oxy)methyl)-3-(trifluoromethoxy)phenyl)-1H-pyrazole-4-carbonitrile], the IC50 lay within 1 to 100 nM.

For `Nc1cc(OCc2ccc(-n3cnc(C(F)(F)F)c3)cc2OC(F)(F)F)c2nn[nH]c2n1` [Example 272, 7-((2-(trifluoromethoxy)-4-(4-(trifluoromethyl)-1H-imidazol-1-yl)benzyl)oxy)-3H-[1,2,3]triazolo[4,5-b] pyridin-5-amine], the IC50 is 101 to 999 nM.

On to `Cc1cn(-c2ccc(COc3cc(N)nc4[nH]nnc34)c(OC(F)(F)F)c2)cn1` [Example 273, 7-((4-(4-methyl-1H-imidazol-1-yl)-2-(trifluoromethoxy)benzyl)oxy)-3H-[1,2,3] triazolo[4,5-b]pyridin-5-amine], for which the half-maximal inhibitory concentration (IC50) lay in the range of 101 to 999 nM.

For `N#Cc1cc(-n2cnc3ccccc32)ccc1COc1cc(N)nc2[nH]nnc12` [Example 274, 2-(((5-amino-3H-[1,2,3]triazolo[4,5-b]pyridin-7-yl)oxy)methyl)-5-(1H-benzo[d]imidazol-1-yl)benzonitrile], the IC50 was 101 to 999 nM.

For `Cc1cn(-c2ccc(COc3cc(N)nc4[nH]nnc34)c(C#N)c2)cn1` [Example 276, 2-(((5-amino-3H-[1,2,3]triazolo[4,5-b]pyridin-7-yl)oxy)methyl)-5-(4-methyl-1H-imidazol-1-yl)benzonitrile], the IC50 fell in the range of 101 to 999 nM.
